Measured values taken from patent publication US20260234159A1, “SMALL MOLECULE TREATMENT OF FATTY LIVER DISEASE AND HCC” (SCANDIEDGE THERAPEUTICS AB, priority 2023, published 2026).

Legend:
[1] = test system: polychromatic erythrocytes; test: Micronucleus frequencies (MNPCEs) as genotoxicity endpoint; assay type: in vivo, Sprague Dawley male rats; conditions: 30 mg/kg, seven days
Protocol: In addition to sampling for biochemical and haematological analysis, one drop of blood samples was obtained from the animals for evaluating micronucleus frequencies as genotoxicity endpoint at the end of the experiments. Three different smears of each rat were prepared using pre-coded and cold slides, then the slides air-dried at room temperature, and fixed in ethanol for 10 min, and stained with Giemsa. […] The incidence of MN-PCEs was determined by scoring a total of 3000 PCE per animal and results were expressed as % MN [12].

[2] = In vivo biosafety study in rats: histopathological and immunohistochemical examination; set-up: species or system Sprague Dawley male rats; conditions: 30 mg/kg, seven days
Protocol: In vivo biosafety studies. Healthy Sprague Dawley male rats (12 weeks old, 250-280 g) were obtained from Atatürk University Experimental Research Center ([…] Turkey) and housed under standard environmental conditions (temperature 20° C.-25° C., humidity 50±20% and 12-hour light/dark diurnal cycle). Food and water were available ad libitum. Rats were randomly separated into one control group and two experimental groups (30 mg/kg/day BX-912 or JNK-IN-5A, n=5). […] The control group were received the same amount of vehicle solution only. After 7 days, rats were anaesthetized, and blood samples were collected from the abdominal aorta for biochemical and haematological analysis. The plasma was separated and stored at -80° C. for further analysis. Major organs such as heart, kidney, liver, muscle, adipose, intestine (duodenum, ileum, jejunum), pancreas, colon, and stomach were collected from all the animals for further analysis. Selected organs were fixed in 10% neutral buffered formalin for histopathological examination. Histopathological examination. […] Immunohistochemical examination. […] Slides were counter stained with hematoxylin.

[3] = test system: HepG2 cells; test: Autophagy assay; assay type: cell-based, human; conditions: 10 μM, one day
Protocol: (§1) HepG2 cells were seeded into a 6-well plate at 400,000 cells per well. After treatment with the compounds at desired concentration and time, TMRE (ab113852, abcam), Autophagy (ab139484, abcam), ROS (ab113851, abcam), and Lipid peroxidation (ab243377, abcam) assay were performed according to manufacturer's instructions. Fluorescence images were taken using ZOE™ Fluorescent Cell Imager (Biorad) and ROI of fluorescence intensity was measured and calculated by Image J. For microplate reader florescence assay, 40,000 of HepG2 cells were seeded into a 96-well plate and triplicated. GFP (Ex480 nm, Em530 nm) and RFP (Ex549 nm, Em574 nm) were measured using a microplate reader (Hidex Sense Meta Plus).

[4] = test system: HSD fed rats; test: In vivo efficacy study in high sucrose diet (HSD) steatosis rats; conditions: HSD plus 30 mg/kg seven days
Excerpt: In vivo efficacy studies. After 1-week acclimation period, rats were randomly separated into two groups: control group (n=5) and high sucrose group (n=20). The control group was fed with a standard diet while the others consumed high sucrose diet (HSD). Sucrose was purchased from Sigma Chemical Co. (St Louis, MO, USA) and supplied at the dose of 10% in the drink water for two weeks.
After 2 weeks, five rats in the HSD group were randomly sacrificed for conformation of NAFLD model. Then, the remaining rats in the HSD group were separated into three sub-groups (n=5): HSD group, HSD plus BX-912 group and HSD plus JNK-IN-5A group. BX-912 and JNK-IN-5A were dissolved in DMSO and were orally administrated using oral gavage for one week (30 mg/kg/day). The HSD group were treated with vehicle solution only.
At the end of the experiment, rats were sacrificed after being anesthetized. Blood samples were collected from the abdominal aorta and centrifuged at 8000 rpm for 15 min at 4° C. The plasma was separated and stored at −80° C. until further analysis. Other internal organs, including the heart, adipose tissues, liver, kidney, muscle, intestine (duodenum, ileum, jejunum), pancreas, colon and stomach were immediately removed and then snap frozen in liquid nitrogen and stored at −80° C.; the liver was also fixed in 10% formaldehyde for histopathological examination.
Histopathological examination. The liver tissues were fixed in 10% buffered formaldehyde solution. After fixation, the tissues were passed through graded alcohol and xylene series and embedded in paraffin blocks. 5 micrometer thick sections were taken serially from the paraffin blocks. Histopathological changes were evaluated by performing hematoxylin eosin staining on the sections taken. Sections were evaluated according to histopathological findings as none (−), mild (+), moderate (++) and severe (+++).
Immunohistochemical examination. After deparaffinization, the slides were immersed in antigen retrieval solution (pH 6.0) and heated in microwave for 15 min to unmask the antigens. The sections were then dipped in 3% H2O2 for 10 min to block endogenous peroxidase activity. Protein block was dropped onto the sections, washed with PBS for 10 min. Primary antibodies (8-OH-dG, Cat No: sc-66036, Diluent Ratio: 1/100, Santa Cruz) were prepared and applied according to the usage conditions. Expose mouse and rabbit specific HRP/DAB detection IHC kit were used as follows: sections were incubated with goat anti-mouse antibody, then with streptavidin peroxidase, and finally with 3,3′ diamino benzidine+chromogen. Slides were counter stained with hematoxylin. Immunoreactivity in the sections were graded as none (−), mild (+), moderate (++) and severe (+++).

[5] = test system: HepG2 cells; test: MTT cell viability after one week steatosis (ranking of target molecules); assay type: cell-based, human
Outline: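 HepG2 cells, 60,000 per well, kept one week in steatosis medium (high-glucose DMEM, 10 μg/ml insulin, 10 μM T0901317) with 10 μM compound. Medium changed at day 0, 3 and 5. Viability measured by MTT.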

[6] = test system: HepG2 cells; test: Cellular ROS assay (DCFDA); assay type: cell-based, human; conditions: 10 μM, one day
Protocol: as §1

[7] = test system: HepG2 cells; test: Lipid peroxidation assay; assay type: cell-based, human
Protocol: as §1

## N#Cc1c(NC(=O)c2cccc3ccccc23)sc2c1CCCC2 [JNK-IN-5A, N-(3-cyano-4,5,6,7-tetrahydrobenzo[b]thiophen-2-yl)-1-naphthamide]
[1]
  genotoxic potential: non-genotoxic
[1]; p>0.05
  frequencies of MNPCEs compared to Ctrl animals: not statistically different
[2]
  histological structures of major organs: normal histological structures
  side effects on the rats: no side effects
[2]; IHC
  8-OH-dG expression in liver tissues: negative
[3]
  autophagy GFP signals: significantly increased
[4]
  toxic effect on small intestine, large intestine, stomach, heart and muscle tissues: no toxic effect
[4]; HSD 3w severe
  degeneration in hepatocytes in liver tissues: mild
  degeneration in renal tubule epithelium: mild
  fattening in the parenchyma cells of pancreas tissues: mild
  steatosis in hepatocytes in liver tissues: mild
[4]; HSD 3w strong
  8-OH-dG expression in hepatocytes: significantly decreased

## N#Cc1c(NC(=O)c2cccc3ccccc23)sc2c1CCN(C(=O)Nc1ccccc1OC(F)(F)F)C2 [PKL-A159]
[5]
  cell viability of HepG2: exceptionally low cell viability

## N#Cc1c(NC(=O)c2cccc3ccccc23)sc2c1CCN(CC(=O)Nc1cccc(Br)c1)C2 [PKL-B171]
[6]
  cellular ROS: significantly increased
[7]
  GFP/RFP ratio (lipid peroxidation): statistically significant increase
